Source: paper PMC8909805, “Anticancer Activity of (S)-5-Chloro-3-((3,5-dimethylphenyl)sulfonyl)-N-(1-oxo-1-((pyridin-4-ylmethyl)amino)propan-2-yl)-1H-indole-2-carboxamide (RS4690), a New Dishevelled 1 Inhibitor” (Cancers, 2022)
“Also recorded” adds a separate entry of the source.

Experiments:
[1] = target: T1, DVL1 PDZ domain (Homo sapiens, UniProt O14640); test: Equilibrium (FRET) competition binding between DVL1 PDZ domain and dansylated TMEM88 C-terminal peptide; settings: compound at 5 µM
T1 sequence (O14640 251-323 limits assumed): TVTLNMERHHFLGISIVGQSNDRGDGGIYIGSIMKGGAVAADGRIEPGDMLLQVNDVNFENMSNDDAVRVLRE
Procedure: Equilibrium binding experiments were performed on a Fluoromax-4 single photon counting spectrofluorometer (Jobin-Yvon, NJ, USA). The buffer used was sodium phosphate 50 mM, DMSO 20% v/v, pH 7.2, and the temperature was set at 25 °C. […] Experiments were performed in the absence and in the presence of 1 µM and 5 µM constant concentration of (S)-2 or (R)-1 enantiomers. Normalized fluorescence collected at 540 nm was fitted using a hyperbolic function.

[2] = target: T2, NHERF1 PDZ1 domain (Homo sapiens, UniProt O14745); test: Inhibition of the NHERF1 PDZ1 domain; format: binding; settings: data not shown
T2 sequence (O14745 14-94 limits assumed): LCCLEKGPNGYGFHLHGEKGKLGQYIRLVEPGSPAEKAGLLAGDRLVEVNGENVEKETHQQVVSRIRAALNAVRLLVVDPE

[3] = test system: SW480 cells; test: Cell growth inhibition, XTT assay, SW480; format: cell-based; settings: Homo sapiens, incubation time 72 h
Procedure: (§1) Cell viability was evaluated by XTT [35] (SW480 and SW620 cells) or MTT [36] (HEK293 and HCT116 cells) colorimetric assays. Briefly, cells (range 10–30 × 10^3 cells/well) were seeded in 96-well microculture plates and then exposed to increasing concentrations of different compounds (range 0–300 µM) for 48 or 72 h. At the end of the treatment, media were removed and incubated at 37 °C in the dark for 4 h in phosphate-buffered saline (PBS) containing 0.2 mg/mL of sodium 3′-[1-[(phenylamino)-carbonyl]-3,4-tetrazolium]-bis(4-methoxy-6-nitro)benzene-sulfonic acid hydrate (XTT) (Thermo Fisher Scientific, Waltham, MA, USA) or (3-[4,5-dimethylthiazol-2-yl]-2,5 diphenyl tetrazolium bromide (MTT) (Merck, Kenilworth, NJ, USA) and phenazine methosulfate (PMS) at a final concentration of 25 µM. Absorbance at 450 nm and a reference wavelength of 650 nm was then measured using a microplate spectrophotometer (Multiskan FC Microplate Photometer, Thermo Scientific, Waltham, MA, USA). The cell growth inhibition rate was calculated utilizing the following formula: inhibition rate (%) = […], where Control OD is absorbance of negative control and Sample OD is absorbance of the test sample. The IC50 values were determined with GraphPad Prism 5 through constructed dose-response curves.
(§2) In vitro cultures of colon cancer cells often present mutations either in the APC gene or in the β-catenin gene. […] Two of these cell lines, colon cancer SW480 and SW620 cells, were used in dose-response experiments. […] We thus tested their growth inhibitory activity on the colon cancer cell line HCT116. In terms of APC and β-catenin, these represent the wt counterparts of SW480 and […]. HCT116 cells express wt APC and are heterozygous for β-catenin, harboring one wild type and one mutant (Ser45del) allele. WNT pathway activity and the survival of HCT116 cells thus depend on DVL and can be affected by FZD and DVL inhibitors. […]

[4] = test system: SW620 cells; test: Cell growth inhibition, XTT assay, SW620; format: cell-based; settings: Homo sapiens, SW-620; incubation time 72 h
Procedure: as §1, §2

[5] = test system: HCT116 cells; test: Cell growth inhibition, MTT assay, HCT116; format: cell-based; settings: Homo sapiens, HCT-116; incubation time 48 h; cells express wild-type APC
Procedure: as §1, §2

[6] = test system: HCT116 cells; test: ROS quantification with DCFDA probe in HCT116 cells; format: cell-based, human; settings: 48 h treatment, increasing concentrations; % of DMSO control
Procedure: HCT116 cells were grown in RPMI-1640 medium (Corning) containing 2 mM L-glutamine and supplemented with 100 IU/mL penicillin/streptomycin and 10% fetal bovine serum (FBS; Sigma-Aldrich, St Louis, MO, USA). HCT116 cells were treated in 96-well-black plates for 48 h with increased concentrations of […]. Quantification of ROS production was measured using 20 μM of the fluorescent probe 2′,7′-dichlorodihydrofluorescein diacetate DCFDA (Sigma Aldrich). The relative fluorescence emission was followed at 520 nm using VICTOR plate reader (VICTOR™ Multilabel Counter, Perkin Elmer) and was normalized to total protein content using BCA test. Total ROS production was presented as percentage with respect to the control (DMSO treated cells) that was set as 100%. Statistical analysis was performed using one-way ANOVA followed by the Bonferroni post hoc comparison test. p < 0.05 was considered significant. Data are representative of three independent experiments with similar results.
Reactive oxygen species (ROS) play important roles in cell growth and differentiation, metabolism and apoptosis. […] We measured the ability of compounds (S)-1 and (R)-1 to generate ROS in HCT116 cells using the fluorescent probe 2′,7′-dichlorodihydrofluorescein diacetate DCFDA. The ROS production (%) upon 48 h treatment was determined with increasing concentrations of (S)-1 or (R)-1. […]

[7] = test system: WNT/β-catenin pathway; test: Inhibition of TCF/LEF (WRE-GFP reporter) activity in HEK293 cells expressing HA-FZD4; format: cell-based; settings: Homo sapiens, HEK293, 48 h, 48 h treatment, read-out: EC50 ± SD WNT Pathway Inhibition
Procedure: Briefly, Hek293 cells were seeded on black 96-well Optiplates (PerkinElmer, Waltham, MA, USA) at a density of 5 × 10^3/well. After seeding for 16–24 h, cells were co-transfected with the cDNA coding for HA-FZD4 (0.04 µg/well) as well as with the reporter construct WRE-GFP (0.04 µg/well) using Lipofectamine. Hek293 cells were plated and treated with different dilutions of compounds 2, (S)-2 or (R)-1 for 48 h before being fixed and analyzed under a fluorescence microscope. Inhibition of WRE activity was measured by counting the percentage of GFP positive cells. Experiments were performed in triplicate and the standard deviations are indicated.
The activity of the compounds was further assayed in HEK293 cells transiently expressing both HA-FZD4 and the WNT reporter construct WRE-GFP (25). The latter presents the coding sequence of GFP under the control of an optimized WNT responsive element (WRE-wt). When WRE-GFP is transiently transfected in cells, it promotes GFP transcription and translation. The amount of GFP produced by each cell (and thus overall cell-fluorescence) depends on the intracellular levels of WNT pathway activity (Figure 5).

| Effect on binding between DVL1 PDZ and TMEM88 peptide [1] | EC50 [3] | EC50 [4] | EC50 [5] | EC50 [7] | Compound | Inhibition of NHERF1 PDZ1 domain [2] | ROS production [6] |
| --- | --- | --- | --- | --- | --- | --- | --- |
| abolished the binding | 55 ± 2.2 µM | 45.9 ± 2 µM | 7.1 ± 0.6 µM |  | Cc1cc(C)cc(S(=O)(=O)c2c(C(=O)N[C@@H](C)C(=O)NCc3ccncc3)[nH]c3ccc(Cl)cc23)c1 [(S)-1, (S)-5-Chloro-3-((3,5-dimethylphenyl)sulfonyl)-N-(1-oxo-1-((pyridin-4-ylmethyl)amino)propan-2-yl)-1H-indole-2-carboxamide] | did not show inhibitory activity; also recorded: did not bind | high level of ROS production; also recorded: superior to (R)-1 at any tested compound concentration; also recorded: higher level of ROS production |
| abolished the binding | 59.5 ± 2.1 µM | 54.8 ± 1.9 µM | 28.3 ± 1.2 µM | 19.49 ± 0.06 µM | Cc1cc(C)cc(S(=O)(=O)c2c(C(=O)N[C@H](C)C(=O)NCc3ccncc3)[nH]c3ccc(Cl)cc23)c1 [(R)-1] | did not show inhibitory activity; also recorded: did not bind |  |
|  | 39.2 ± 1.58 µM | 38.5 ± 1.6 µM | 15.2 ± 1.1 µM | 3.46 ± 0.07 µM | Cc1cc(C)cc(S(=O)(=O)c2c(C(=O)NC(C)C(=O)NCc3ccncc3)[nH]c3ccc(Cl)cc23)c1 (stereo not shown) [Compound 1] |  |  |
